These are literature values, as cited in patent publication US7314641B1, “High-bioavailability particle coated with fungicide and polymer” (Everest Pharm. Industrial Co., Ltd., priority 2007, dated 2008).

The conditions of data set [1]: prior art statement on the compound of U.S. Pat. No. 4,267,179.

For the compound `CCC(C)n1ncn(-c2ccc(N3CCN(c4ccc(OCC5COC(Cn6cncn6)(c6ccc(Cl)cc6Cl)O5)cc4)CC3)cc2)c1=O` (single isomer, unassigned; (+)) [itraconazole, (+)-cis-4-[4-[4-[-4[[2-(2,4-dichlorophenyl)-2-(1H-1,2,4-triazol-1-ylmethyl)-1,3-dioxolan-4-yl]methoxy]phenyl]-1-piperazinyl]phenyl-2,4-dihydro-2-1(1-methylpropyl)-3H-1,2,4-triazol-3-one], the “Metabolic period in human beings” value was 96 h. Besides, the water solubility result in data set [1] is on record as “not water soluble”.
